According to ChEMBL document CHEMBL1201861, “Genomics of Drug Sensitity in Cancer screening data, Wellcome Trust Sanger Institute”:

How the values were obtained:
[1] = system: NCI-H2196; assay: cells; type: functional, cell-based; conditions: Homo sapiens;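 further: cell viability assay used as the readout of growth inhibition in NCI-H2196 cells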
Description: SANGER: Inhibition of human NCI-H2196 cell growth in a cell viability assay.

[2] = system: NCI-H1882; assay: cells; type: functional, cell-based; conditions: Homo sapiens
Description: SANGER: Inhibition of human NCI-H1882 cell growth in a cell viability assay.

[3] = system: SIG-M5; assay: cells; type: functional, cell-based; conditions: Homo sapiens;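 further: cell viability assay read-out, measuring how strongly growth of cultured human SIG-M5 cells is inhibited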
Description: SANGER: Inhibition of human SIG-M5 cell growth in a cell viability assay.

[4] = system: SCC-3; assay: cells; type: functional, cell-based; conditions: Homo sapiens;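 further: cell viability assay measuring inhibition of SCC-3 cell growth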
Description: SANGER: Inhibition of human SCC-3 cell growth in a cell viability assay.

[5] = system: SIMA; assay: cells; type: functional, cell-based, Homo sapiens; conditions: Homo sapiens, SIMA;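 further: growth inhibition of SIMA cells, measured with a cell viability readout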
Description: SANGER: Inhibition of human SIMA cell growth in a cell viability assay.

[6] = system: HCC1599; assay: cells; type: functional, cell-based; conditions: Homo sapiens;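 further: growth inhibition of HCC1599 cells, read out in a cell viability assay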
Description: SANGER: Inhibition of human HCC1599 cell growth in a cell viability assay.

[7] = system: CHP-126; assay: cells; type: functional, cell-based; conditions: Homo sapiens
Description: SANGER: Inhibition of human CHP-126 cell growth in a cell viability assay.

[8] = system: SUP-T1; assay: cells; type: functional, cell-based; conditions: Homo sapiens;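 further: growth inhibition of human SUP-T1 cells, read out as cell viability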
Description: SANGER: Inhibition of human SUP-T1 cell growth in a cell viability assay.

[9] = system: NCI-H1963; assay: cells; type: functional, cell-based; conditions: Homo sapiens
Description: SANGER: Inhibition of human NCI-H1963 cell growth in a cell viability assay.

[10] = system: SK-MM-2; assay: cells; type: functional, cell-based; conditions: Homo sapiens;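 further: growth inhibition of human SK-MM-2 cells, read out with a cell viability assay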
Description: SANGER: Inhibition of human SK-MM-2 cell growth in a cell viability assay.

[11] = system: U-698-M; assay: cells; type: functional, cell-based; conditions: Homo sapiens
Description: SANGER: Inhibition of human U-698-M cell growth in a cell viability assay.

[12] = system: SU-DHL-1; assay: SANGER: Inhibition of human SU-DHL-1 cell growth in a cell viability assay.; type: functional, cell-based
[13] = system: K052; assay: cells; type: functional, cell-based; conditions: Homo sapiens;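 further: Read-out from a cell viability assay, IC50 reflecting suppression of K052 cell growth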
Description: SANGER: Inhibition of human K052 cell growth in a cell viability assay.

[14] = system: THP-1; assay: cells; type: functional, cell-based; conditions: Homo sapiens;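 further: growth inhibition of THP-1 cells, read out via a cell viability assay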
Description: SANGER: Inhibition of human THP-1 cell growth in a cell viability assay.

[15] = system: NCI-H64; assay: cells; type: functional, cell-based; conditions: Homo sapiens;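 further: growth inhibition of NCI-H64 cells, read out with a cell viability assay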
Description: SANGER: Inhibition of human NCI-H64 cell growth in a cell viability assay.

[16] = system: MONO-MAC-6; assay: cells; type: functional, cell-based; conditions: Homo sapiens;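 further: cell viability assay measuring growth inhibition of human MONO-MAC-6 cells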
Description: SANGER: Inhibition of human MONO-MAC-6 cell growth in a cell viability assay.

[17] = system: CA46; assay: cells; type: functional, cell-based; conditions: Homo sapiens;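 further: growth inhibition of human CA46 cells, read out by a cell viability assay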
Description: SANGER: Inhibition of human CA46 cell growth in a cell viability assay.

[18] = system: NB1; assay: cells; type: functional, cell-based; conditions: Homo sapiens;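 further: reduction of NB1 cell proliferation, read out with a viability assay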
Description: SANGER: Inhibition of human NB1 cell growth in a cell viability assay.

[19] = system: P31-FUJ; assay: cells; type: functional, cell-based; conditions: Homo sapiens;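 further: growth inhibition of P31-FUJ cells, read out with a viability assay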
Description: SANGER: Inhibition of human P31-FUJ cell growth in a cell viability assay.

[20] = system: RL95-2; assay: cells; type: functional, cell-based; conditions: Homo sapiens;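 further: RL95-2 growth inhibition determined through a cell viability readout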
Description: SANGER: Inhibition of human RL95-2 cell growth in a cell viability assay.

[21] = system: LB647-SCLC; assay: cells; type: functional, cell-based; conditions: Homo sapiens;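 further: cell growth inhibition, read out by a viability assay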
Description: SANGER: Inhibition of human LB647-SCLC cell growth in a cell viability assay.

[22] = system: KARPAS-422; assay: cells; type: functional, cell-based; conditions: Homo sapiens
Description: SANGER: Inhibition of human KARPAS-422 cell growth in a cell viability assay.

[23] = system: TE-15; assay: cells; type: functional, cell-based; conditions: Homo sapiens;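 further: cell viability readout of growth inhibition in TE-15 cells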
Description: SANGER: Inhibition of human TE-15 cell growth in a cell viability assay.

[24] = system: MRK-nu-1; assay: cells; type: functional, cell-based; conditions: Homo sapiens;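 further: cell viability assay measuring growth suppression of human MRK-nu-1 cells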
Description: SANGER: Inhibition of human MRK-nu-1 cell growth in a cell viability assay.

[25] = system: PF-382; assay: cells; type: functional, cell-based; conditions: Homo sapiens
Description: SANGER: Inhibition of human PF-382 cell growth in a cell viability assay.

[26] = system: WSU-NHL; assay: cells; type: functional, cell-based; conditions: Homo sapiens;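 further: growth inhibition of human WSU-NHL cells, read out with a cell viability assay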
Description: SANGER: Inhibition of human WSU-NHL cell growth in a cell viability assay.

[27] = system: REH; assay: cells; type: functional, cell-based; conditions: Homo sapiens;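 further: growth inhibition of REH cells determined with a cell viability read-out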
Description: SANGER: Inhibition of human REH cell growth in a cell viability assay.

[28] = system: DMS-153; assay: cells; type: functional, cell-based; conditions: Homo sapiens
Description: SANGER: Inhibition of human DMS-153 cell growth in a cell viability assay.

[29] = system: NCI-H322M; assay: cells; type: functional, cell-based; conditions: Homo sapiens;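 further: cell viability assay measuring inhibition of growth of human NCI-H322M cells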
Description: SANGER: Inhibition of human NCI-H322M cell growth in a cell viability assay.

[30] = system: EB2; assay: cells; type: functional, cell-based; conditions: Homo sapiens;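 further: growth inhibition of EB2 cells, read out with a cell viability assay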
Description: SANGER: Inhibition of human EB2 cell growth in a cell viability assay.

[31] = system: LOUCY; assay: cells; type: functional, cell-based; conditions: Homo sapiens;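 further: growth inhibition of human LOUCY cells, read out with a cell viability assay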
Description: SANGER: Inhibition of human LOUCY cell growth in a cell viability assay.

[32] = system: IMR-5; assay: cells; type: functional, cell-based; conditions: Homo sapiens;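 further: growth inhibition of human IMR-5 cells, read out with a cell viability assay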
Description: SANGER: Inhibition of human IMR-5 cell growth in a cell viability assay.

[33] = system: LC-1F; assay: cells; type: functional, cell-based; conditions: Homo sapiens;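 further: growth inhibition of human LC-1F cells, read out with a cell viability assay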
Description: SANGER: Inhibition of human LC-1F cell growth in a cell viability assay.

[34] = system: TALL-1; assay: cells; type: functional, cell-based; conditions: Homo sapiens;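 further: growth inhibition of cultured human TALL-1 cells, read out by a cell viability assay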
Description: SANGER: Inhibition of human TALL-1 cell growth in a cell viability assay.

[35] = system: NCI-H1694; assay: cells; type: functional, cell-based; conditions: Homo sapiens;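 further: cell viability assay measuring inhibition of growth in human NCI-H1694 cells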
Description: SANGER: Inhibition of human NCI-H1694 cell growth in a cell viability assay.

[36] = system: IM-9; assay: SANGER: Inhibition of human IM-9 cell growth in a cell viability assay.; type: functional, cell-based
[37] = system: EB-3; assay: cells; type: functional, cell-based; conditions: Homo sapiens;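 further: human EB-3 cells, growth inhibition read out via a cell viability assay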
Description: SANGER: Inhibition of human EB-3 cell growth in a cell viability assay.

[38] = system: BC1 cell line; assay: SANGER: Inhibition of human BC-1 cell growth in a cell viability assay.; type: functional, cell-based
[39] = system: CESS; assay: SANGER: Inhibition of human CESS cell growth in a cell viability assay.; type: functional, cell-based
[40] = system: NCI-H1522; assay: cells; type: functional, cell-based; conditions: Homo sapiens;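 further: growth inhibition of NCI-H1522 cells, read out with a cell viability assay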
Description: SANGER: Inhibition of human NCI-H1522 cell growth in a cell viability assay.

[41] = system: NCI-H719; assay: cells; type: functional, cell-based; conditions: Homo sapiens;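 further: growth inhibition of the cultured cell line, read out with a viability assay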
Description: SANGER: Inhibition of human NCI-H719 cell growth in a cell viability assay.

[42] = system: BC-3; assay: cells; type: functional, cell-based; conditions: Homo sapiens;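 further: cell viability assay measuring growth inhibition of human BC-3 cells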
Description: SANGER: Inhibition of human BC-3 cell growth in a cell viability assay.

[43] = system: NCI-H2009; assay: cells; type: functional, cell-based, Homo sapiens; conditions: Homo sapiens, NCI-H2009;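 further: cell viability assay measuring inhibition of NCI-H2009 cell growth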
Description: SANGER: Inhibition of human NCI-H2009 cell growth in a cell viability assay.

[44] = system: NCI-H522; assay: cells; type: functional, cell-based, Homo sapiens; conditions: Homo sapiens, NCI-H522;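 further: cell viability assay measuring growth inhibition of human NCI-H522 cells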
Description: SANGER: Inhibition of human NCI-H522 cell growth in a cell viability assay.

[45] = system: NCI-H1573; assay: cells; type: functional, cell-based; conditions: Homo sapiens;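 further: growth inhibition of NCI-H1573 cells, read out with a cell viability assay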
Description: SANGER: Inhibition of human NCI-H1573 cell growth in a cell viability assay.

[46] = system: SNU-423; assay: cells; type: functional, cell-based, Homo sapiens; conditions: Homo sapiens, SNU-423
Description: SANGER: Inhibition of human SNU-423 cell growth in a cell viability assay.

[47] = system: HSC-4; assay: cells; type: functional, cell-based, Homo sapiens; conditions: Homo sapiens, HSC-4;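 further: growth inhibition of human HSC-4 cells, read out with a cell viability assay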
Description: SANGER: Inhibition of human HSC-4 cell growth in a cell viability assay.

[48] = system: NCI-H2227; assay: cells; type: functional, cell-based; conditions: Homo sapiens;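 further: growth inhibition of the human cell line, read out with a cell viability assay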
Description: SANGER: Inhibition of human NCI-H2227 cell growth in a cell viability assay.

[49] = system: UACC-812; assay: cells; type: functional, cell-based; conditions: Homo sapiens
Description: SANGER: Inhibition of human UACC-812 cell growth in a cell viability assay.

`Cc1cc(Nc2cc(N3CCN(C)CC3)nc(Sc3ccc(NC(=O)C4CC4)cc3)n2)n[nH]1` [TOZASERTIB] was tested, and the IC50 [1] was > 2 µM, the IC50 [2] was > 2 µM and the IC50 [3] was 0.167 µM. For the same compound, the IC50 [4] was > 2 µM, the IC50 [5] was > 2 µM and the IC50 [6] was 0.809 µM. The IC50 [7] was > 2 µM, the IC50 [8] was > 2 µM and the IC50 [9] was 1.71 µM. For the same compound, the IC50 [10] was > 2 µM, the IC50 [11] was > 2 µM and the IC50 [12] was > 2 µM. For the same compound, the IC50 [13] was 0.195 µM, the IC50 [14] was > 2 µM and the IC50 [15] was > 2 µM. The IC50 [16] was 0.0788 µM, the IC50 [17] was > 2 µM and the IC50 [18] was > 2 µM. The IC50 [19] was > 2 µM, the IC50 [20] was 0.406 µM and the IC50 [21] was 0.215 µM. For the same compound, the IC50 [22] was 0.373 µM, the IC50 [23] was 0.851 µM and the IC50 [24] was 0.381 µM. The IC50 [25] was > 2 µM, the IC50 [26] was > 2 µM and the IC50 [27] was > 2 µM. For the same compound, the IC50 [28] was > 2 µM, the IC50 [29] was > 2 µM and the IC50 [30] was > 2 µM. For the same compound, the IC50 [31] was > 2 µM, the IC50 [32] was 0.355 µM and the IC50 [33] was > 2 µM. The IC50 [34] was > 2 µM, the IC50 [35] was > 2 µM and the IC50 [36] was > 2 µM. For the same compound, the IC50 [37] was > 2 µM, the IC50 [38] was > 2 µM and the IC50 [39] was 0.313 µM. For the same compound, the IC50 [40] was > 2 µM, the IC50 [41] was > 2 µM and the IC50 [42] was > 2 µM.
`CCC(=O)N1CCN(c2ccc(-n3c(=O)ccc4cnc5ccc(-c6cnc7ccccc7c6)cc5c43)cc2C(F)(F)F)CC1` [TORIN1] gave an IC50 [1] of 0.33 µM, an IC50 [2] of 0.167 µM and an IC50 [3] of 0.089 µM. The IC50 [4] was 0.129 µM, the IC50 [5] was > 1.2 µM and the IC50 [6] was 0.0488 µM. For the same compound, the IC50 [7] was > 1.2 µM, the IC50 [8] was > 1.2 µM and the IC50 [9] was 0.626 µM. The IC50 [10] was 0.107 µM, the IC50 [11] was > 1.2 µM and the IC50 [12] was 0.645 µM. The IC50 [13] was 0.119 µM, the IC50 [14] was > 1.2 µM and the IC50 [15] was 0.303 µM. For the same compound, the IC50 [16] was 0.0721 µM, the IC50 [17] was 0.509 µM and the IC50 [18] was 0.279 µM. The IC50 [19] was > 1.2 µM, the IC50 [20] was 0.0032 µM and the IC50 [21] was 0.117 µM. For the same compound, the IC50 [22] was 0.124 µM, the IC50 [23] was 0.0443 µM and the IC50 [24] was 0.00707 µM. The IC50 [25] was 0.0757 µM, the IC50 [26] was > 1.2 µM and the IC50 [27] was > 1.2 µM. For the same compound, the IC50 [28] was > 1.2 µM, the IC50 [29] was > 1.2 µM and the IC50 [30] was > 1.2 µM. It also gave an IC50 [31] of 0.0639 µM, an IC50 [32] of 0.165 µM and an IC50 [33] of 0.0399 µM. For the same compound, the IC50 [34] was 0.229 µM, the IC50 [35] was 0.507 µM and the IC50 [36] was > 1.2 µM. The IC50 [37] was 0.0364 µM, the IC50 [38] was > 1.2 µM and the IC50 [39] was 0.031 µM. The IC50 [40] was 0.649 µM, the IC50 [41] was 0.967 µM and the IC50 [42] was 0.082 µM.
In the case of `Cn1cncc1[C@@](N)(c1ccc(Cl)cc1)c1ccc2c(c1)c(-c1cccc(Cl)c1)cc(=O)n2C` [TIPIFARNIB], the IC50 [1] is reported as > 16 µM, the IC50 [2] is reported as > 16 µM and the IC50 [43] is reported as 0.363 µM. The IC50 [3] was < 0.0625 µM, the IC50 [44] was 2.4 µM and the IC50 [4] was > 16 µM. The IC50 [5] was > 16 µM, the IC50 [6] was > 16 µM and the IC50 [7] was > 16 µM. For the same compound, the IC50 [8] was 0.787 µM, the IC50 [9] was > 16 µM and the IC50 [10] was > 16 µM. For the same compound, the IC50 [11] was 3.99 µM, the IC50 [12] was 7.27 µM and the IC50 [13] was 15.9 µM. For the same compound, the IC50 [14] was > 16 µM, the IC50 [15] was > 16 µM and the IC50 [16] was 3.35 µM. For the same compound, the IC50 [17] was 2.39 µM, the IC50 [18] was > 16 µM and the IC50 [19] was > 16 µM. The IC50 [21] was > 16 µM, the IC50 [22] was > 16 µM and the IC50 [23] was 0.365 µM. The IC50 [45] was 5.9 µM, the IC50 [46] was 0.705 µM and the IC50 [24] was 1.12 µM. For the same compound, the IC50 [25] was 1.71 µM, the IC50 [26] was > 16 µM and the IC50 [27] was 0.0592 µM. For the same compound, the IC50 [28] was > 16 µM, the IC50 [47] was > 16 µM and the IC50 [29] was > 16 µM. The IC50 [30] was 2.72 µM, the IC50 [31] was > 16 µM and the IC50 [32] was > 16 µM. For the same compound, the IC50 [33] was > 16 µM, the IC50 [34] was > 16 µM and the IC50 [35] was > 16 µM. The IC50 [36] was > 16 µM, the IC50 [37] was 9.1 µM and the IC50 [38] was 0.13 µM. The IC50 [48] was > 16 µM, the IC50 [39] was 2.02 µM and the IC50 [40] was > 16 µM. The IC50 [41] was 10.5 µM, the IC50 [49] was > 16 µM and the IC50 [42] was 2.98 µM.
